Assays:
[1] = tested on: alcohol dehydrogenase from Vanilla planifolia embryo culture (vanillyl alcohol dehydrogenase, VAD); assay: Substrate specificity of vanillyl alcohol dehydrogenase (VAD); type: biochemical; settings: for Activity with the compound as substrate, NADH: cofactor NADH; for Activity with the compound as substrate, NADPH: cofactor NADPH
Protocol: We have purified and characterized the activity of VAD that catalyze the reduction of vanillin to vanillyl alcohol. The enzyme was identified as an NADH or NADPH-dependent alcohol dehydrogenase. The purification protocol was as set forth below.
Crude enzyme extract: Tissue was homogenized in 0.05 M actetate-Na buffer pH 4.0 (in proportion, 1 g of the tissue and 5 ml of the buffer) in an ice bath, using Polytrone homogenizer, at 20,000 revolutions of the blade per min. The homogenate was centrifuged at 13000 g for 15 min at 4° C. and the supernatant served as the crude enzyme source.
Ammonium sulfate fractionation and molecular sieving: Crude enzyme extract (100 ml) was supplied with ammonium sulfate in an ice bath up to 60% of saturation (44.4 g of Ammonium sulphate per 100 ml). The precipitate was centrifuged and discarded. The supernatant was supplied with ammonium sulfate up to 90% of saturation (total 64.6 g per 100 ml of crude extract). The precipitate was collected (10 min centrifugation at 10,000 g), dissolved in 7 ml of extraction buffer and subjected to molecular sieving at Sephacryl S-300 High Load Column (LKB Pharmacia) 2.6×60 cm, in 0.1 M pH 4.0 acetate-Na buffer. The flow rate was adjusted to 1 ml/min and 5 ml fractions were collected. The protein elution profile was monitored at 280 nm. Five fractions (of a total of 50) containing dehydrogenase activity (130–155 ml of the column eluate) were collected.
The column was developed with 0.5 M Tris/HCL buffer pH 7.4 in 0.0–1.0 M NaCl gradient (total gradient volume—70 ml) and 2.5 ml fractions were collected. Vanillyl alcohol dehydrogenase was released from the column between 0.3–0.4 M NaCl. Fractions containing VAD activity were dialysed overnight against 0.05 M caetate-Na buffer pH 4.0 and concentrated up to 50 times using Minicon concentrating filters (Amicon). […]

Vanilla embryo culture = assay: Feeding vanilla embryo culture with vanillin precursors, HPLC analysis of metabolites; type: cell-based, Vanilla planifolia
From the text: We derived a scheme for the vanillin biosynthetic pathway by analysis of metabolites in cultured embryos and by experiments with feeding of precursors and intermediates. This scheme is shown in FIG. 1 and the experiments are described below.
(§1) Embryo cultures of Vanilla planifolia were established as described in Example 1. The procedures used to extract phenolics from the cultured embryo cells and to analyze the extracts by high pressure liquid chromatography (HPLC) were as described generally by Havkin-Frenkel et al., Plant Cell, Tissue and Organ Culture 45: 133–136 (1996).
(§2) In the extraction procedure, 3 ml of 0.05 M sodium acetate buffer, pH 5.5, was added to about 1 gram of fresh culture. Samples were placed in boiling water for three minutes, then chilled. The cells were next homogenized in a Polytron blender for 1 minute at medium speed. A β-glucosidase solution was added to the homogenized cells to give a final concentration of 0.2%. Each sample was then incubated at 37° C. for 5 hr. Next, 17 ml of 95% ethanol was added, after which incubation at 37° C. was continued for an additional 24 hrs. The extract was then filtered and the ethanol evaporated. The filtrate was extracted twice using ethyl acetate, then extracted twice with ethyl acetate acidified to pH 3 with HCl. The extracts were combined and the ethyl acetate evaporated. The residue was dissolved in 1 ml of acidified methanol and filtered with a 0.45 μm syringe filter for HPLC analysis.
Extractions of metabolites from culture medium was similar to the cell extraction protocol. Five ml of spent medium was incubated in a β-glucosidase solution at 37° C. for 24 hrs. The medium was then extracted with ethyl acetate and the organic portions combined and evaporated, as for the cell extracts.
(§3) Metabolite levels were measured with a Hewlett Packard 1090L or a Waters HPLC with a UV detector at 280 nm. The Waters HPLC was also equipped with a diode array detector to confirm the identities of the various intermediates, and the identities of the various intermediates were further confirmed by mass spectrometry. The column was a Supelco C-18 DB column of dimensions 250 mm×4.6 mm and a particle size of 5 μm. The mobile phase contained methanol and water, each of which was acidified with 1.25% acetic acid. The flow rate was 1 ml/min, with a solvent gradient as follows: […]
Results of selected experiments in which precursors or elicitors were added to vanilla cultures are set forth below. These experiments were performed in accordance with the procedures set forth in Examples 1–4.

[2] = tested on: p-hydroxybenzaldehyde synthase; assay: Substrate specificity of p-hydroxybenzaldehyde synthase (chain shortening enzyme), crude enzyme; type: biochemical, Vanilla planifolia; settings: for Result: conversion of the compound as substrate to the expected chain-shortened product: crude enzyme, HPLC detection of product
Protocol: Sterile plant material (2 g) 2–3 weeks after subculture, was homogenized in a cooled Potter glass homogenizer with 4 ml of 0.1 M HEPES buffer, pH 8.0, containing 10 mM DTT. The homogenate was next centrifuged at 4° C. at 15.000× g for 15 min. Resultant supernatant (4 ml) was filtered through Sephadex G-25 column (void volume 3–4 ml.) Equilibrated with Tris/HCL buffer pH7, containing 10 mM DTT. The column was washed with the same buffer and 2 ml fraction following the void volume was collected. This fraction was used as the crude enzyme source.
The p-HO-aldehyde synthase activity was determined in the following mixture:
crude enzyme extract: 10 μl
(substrate=1.8 mM p-coumarate in 0.1 M Tris/HCl, pH 8.0 with 10 mM DTT)
The mixture was incubated for 10–60 min (for longer incubation times, the activity was not proportional with time) at 35° C. and next, the reaction stopped by addition of 200 μl of acidified methanol (10% acetic acid in methanol). The slurry was passed through 0.45 μm filter and the filtrate (50 μl) injected into HPLC Bio-sil 18 HL 90-5 column (Reversed phase, 250 mm×4.6 mm). […] The eluate was monitored at 280 nm and retention time of the reaction product was compared to retention time of the standard compounds (benzaldehyde, p-HO-benzaldehyde, vanillin, protocatechuic aldehyde, p-coumaric acid, caffeic acid, ferulic acid, coniferyl aldehyde). The results were quantified using LKB Bromma 2221 Integrator.
As a potential substrates for chain shortening enzyme the following compounds were tested: […]

[3] = tested on: Vanilla planifolia Embryo Culture; assay: Malic acid elicitation of embryo culture, HPLC analysis of intermediary metabolites; type: cell-based
Protocol: as §1, §2, §3
Malic acid in concentrations of 0.1 to 3% was applied as a disodium salt to the growing medium. The culture was maintained for 1 to 15 days, then was extracted as described in Example 2.
Cultures were grown in medium containing 3% malic acid by weight, for 7 days.

[4] = 3% malic acid by weight in medium, 7 days

CCOc1cc(C=O)ccc1O [4-hydroxy-3-ethoxybenzaldehyde]
Activity with the compound as substrate, NADH [1]: 0.42 nmoles · gfwt^−1 · min^−1

CCOc1cc(C=O)ccc1OC [4-methoxy-3-ethoxybenzaldehyde]
Activity with the compound as substrate, NADH [1]: 0.00 nmoles · gfwt^−1 · min^−1

COc1ccc(C=O)cc1O [4methoxy-3-hydroxybenzaldehyde]
Activity with the compound as substrate, NADH [1]: 0.00 nmoles · gfwt^−1 · min^−1
Activity with the compound as substrate, NADPH [1]: 0.00 nmoles · gfwt^−1 · min^−1

CC=O [Acetaldehyde]
substrate preference of VAD [1]: lower
Activity with the compound as substrate, NADH [1]: 0.26 nmoles · gfwt^−1 · min^−1

O=Cc1ccc(O)cc1 [BA, p-hydroxybenzaldehyde]
Activity with the compound as substrate, NADH [1]: 0.32 nmoles · gfwt^−1 · min^−1
Activity with the compound as substrate, NADPH [1]: 0.14 nmoles · gfwt^−1 · min^−1
CA (p-coumaric acid) content of culture (Vanilla embryo culture; precursor fed at 1 mM): 125 mg/100 g dry wt.
HBA (p-hydroxybenzyl alcohol) content of culture (Vanilla embryo culture; precursor fed at 1 mM): 10305 mg/100 g dry wt.
PRO-ALD (3,4-dihydroxybenzaldehyde) content of culture (Vanilla embryo culture; precursor fed at 1 mM): 5.8 mg/100 g dry wt.
VN (vanillin) content of culture (Vanilla embryo culture; precursor fed at 1 mM): 0.015 mg/100 g dry wt.
VN ALC (vanillyl alcohol) content of culture (Vanilla embryo culture; precursor fed at 1 mM): 12.3 mg/100 g dry wt.

O=Cc1ccccc1 [Benzaldehyde]
Activity with the compound as substrate, NADH [1]: 0.33 nmoles · gfwt^−1 · min^−1
Activity with the compound as substrate, NADPH [1]: 0.18 nmoles · gfwt^−1 · min^−1

O=C(O)/C=C/c1ccc(O)cc1 [CA, p-coumaric acid]
specificity of the tested enzyme towards substrate [2]: very high specificity
Result: conversion of the compound as substrate to the expected chain-shortened product [2]: positive
CA (p-coumaric acid) content of culture (Vanilla embryo culture; precursor fed at 1 mM): 220 mg/100 g dry wt.
HBA (p-hydroxybenzyl alcohol) content of culture (Vanilla embryo culture; precursor fed at 1 mM): 13000 mg/100 g dry wt.
PRO-ALD (3,4-dihydroxybenzaldehyde) content of culture (Vanilla embryo culture; precursor fed at 1 mM): 10 mg/100 g dry wt.
VN (vanillin) content of culture (Vanilla embryo culture; precursor fed at 1 mM): 0.01 mg/100 g dry wt.
VN ALC (vanillyl alcohol) content of culture (Vanilla embryo culture; precursor fed at 1 mM): 10 mg/100 g dry wt.

O=C(O)/C=C/c1ccc(O)c(O)c1 [CAF, caffeic acid]
Result: conversion of the compound as substrate to the expected chain-shortened product [2]: negative
CA (p-coumaric acid) content of culture (Vanilla embryo culture; precursor fed at 2 mM): 189 mg/100 g dry wt.
HBA (p-hydroxybenzyl alcohol) content of culture (Vanilla embryo culture; precursor fed at 2 mM): 11350 mg/100 g dry wt.
PRO-ALD (3,4-dihydroxybenzaldehyde) content of culture (Vanilla embryo culture; precursor fed at 2 mM): 21 mg/100 g dry wt.
VN (vanillin) content of culture (Vanilla embryo culture; precursor fed at 2 mM): 0.5 mg/100 g dry wt.
VN ALC (vanillyl alcohol) content of culture (Vanilla embryo culture; precursor fed at 2 mM): 32 mg/100 g dry wt.

O=CC=Cc1ccccc1 [Cinnamylaldehyde]
Activity with the compound as substrate, NADH [1]: 0.00 nmoles · gfwt^−1 · min^−1

COc1cc(/C=C/C(=O)O)ccc1O [FA, ferulic acid]
Result: conversion of the compound as substrate to the expected chain-shortened product [2]: negative
CA (p-coumaric acid) content of culture (Vanilla embryo culture; precursor fed at 25 mM): 136 mg/100 g dry wt.
HBA (p-hydroxybenzyl alcohol) content of culture (Vanilla embryo culture; precursor fed at 25 mM): 11007 mg/100 g dry wt.
PRO-ALD (3,4-dihydroxybenzaldehyde) content of culture (Vanilla embryo culture; precursor fed at 25 mM): 4.8 mg/100 g dry wt.
VN (vanillin) content of culture (Vanilla embryo culture; precursor fed at 25 mM): 11.8 mg/100 g dry wt.
VN ALC (vanillyl alcohol) content of culture (Vanilla embryo culture; precursor fed at 25 mM): 23.8 mg/100 g dry wt.

OCc1ccc(O)cc1 [HBA, p-hydroxybenzyl alcohol]
CA (p-coumaric acid) content of culture (Vanilla embryo culture; precursor fed at 1 mM): 158 mg/100 g dry wt.
HBA (p-hydroxybenzyl alcohol) content of culture (Vanilla embryo culture; precursor fed at 1 mM): 13100 mg/100 g dry wt.
PRO-ALD (3,4-dihydroxybenzaldehyde) content of culture (Vanilla embryo culture; precursor fed at 1 mM): 4.6 mg/100 g dry wt.
VN (vanillin) content of culture (Vanilla embryo culture; precursor fed at 1 mM): 0.001 mg/100 g dry wt.
VN ALC (vanillyl alcohol) content of culture (Vanilla embryo culture; precursor fed at 1 mM): 9.6 mg/100 g dry wt.
fate of HBA in tissue homogenates (Vanilla embryo culture; tissue homogenates): rapidly metabolized to dihydroxybenzyl aldehyde

O=C(O)CC(O)C(=O)O (centres unmarked) [Malic Acid, malic acid]
BA content of culture [3, 4]: 0.02% of Dry Weight
HBA content of culture [3, 4]: 3.60% of Dry Weight
HMBA (vanillyl alcohol) content of culture [3, 4]: 0.700% of Dry Weight
HY content of culture [3, 4]: 0.050% of Dry Weight
PC content of culture [3, 4]: 0.20% of Dry Weight
PROALD content of culture [3, 4]: 0.025% of Dry Weight
VN (vanillin) content of culture [3, 4]: 0.072% of Dry Weight
stimulation of vanillin production relative to standard conditions ([3]; 3% malic acid by weight, 7 days, embryo cultures): more than tenfold
vanillin yield ([3]; 3% malic acid, embryo cultures, increase from 5): 72 mg/100 g tissue
effect on production/accumulation of vanillin and vanillyl alcohol ([3]; malic acid 0.1 to 3% as disodium salt, 1 to 15 days): induced the production/accumulation of vanillin and vanillyl alcohol

COc1cc(CO)ccc1O [VN. ALC., vanillyl alcohol]
CA (p-coumaric acid) content of culture (Vanilla embryo culture; precursor fed at 2 mM): 206 mg/100 g dry wt.
HBA (p-hydroxybenzyl alcohol) content of culture (Vanilla embryo culture; precursor fed at 2 mM): 10350 mg/100 g dry wt.
PRO-ALD (3,4-dihydroxybenzaldehyde) content of culture (Vanilla embryo culture; precursor fed at 2 mM): 1.1 mg/100 g dry wt.
VN (vanillin) content of culture (Vanilla embryo culture; precursor fed at 2 mM): 8.5 mg/100 g dry wt.
VN ALC (vanillyl alcohol) content of culture (Vanilla embryo culture; precursor fed at 2 mM): 882 mg/100 g dry wt.

COc1cc(/C=C/C=O)ccc1O [coniferyl aldehyde, 4-HO-3-metoxycinnamyl aldehyde]
Result: conversion of the compound as substrate to the expected chain-shortened product [2]: negative
Activity with the compound as substrate, NADH [1]: 0.00 nmoles · gfwt^−1 · min^−1

O=C(O)/C=C/c1ccccc1 [t-cinnamic acid]
Result: conversion of the compound as substrate to the expected chain-shortened product [2]: negative

From patent US7226783B1, “Vanillin production” (David Michael & Co., Inc., priority 1997, dated 2007)
